# Results published in ChEMBL document CHEMBL1155048, “Effect of novel N-cyano-tetrahydro-pyridazine compounds, a class of cathepsin K inhibitors, on the bone resorptive activity of mature osteoclasts” (Bioorg Med Chem Lett, 2008).
# Columns and labels:
# Cathepsin B = Cathepsin B (Homo sapiens, UniProt P07858); test: Inhibition of human recombinant cathepsin B
# Procathepsin L = Procathepsin L (Homo sapiens, UniProt P07711); test: Inhibition of human recombinant cathepsin L
# Cathepsin K = biological target: T1, Cathepsin K (Homo sapiens, UniProt P43235); test: Inhibition of human recombinant cathepsin K
# T1 sequence (P43235 whole entry): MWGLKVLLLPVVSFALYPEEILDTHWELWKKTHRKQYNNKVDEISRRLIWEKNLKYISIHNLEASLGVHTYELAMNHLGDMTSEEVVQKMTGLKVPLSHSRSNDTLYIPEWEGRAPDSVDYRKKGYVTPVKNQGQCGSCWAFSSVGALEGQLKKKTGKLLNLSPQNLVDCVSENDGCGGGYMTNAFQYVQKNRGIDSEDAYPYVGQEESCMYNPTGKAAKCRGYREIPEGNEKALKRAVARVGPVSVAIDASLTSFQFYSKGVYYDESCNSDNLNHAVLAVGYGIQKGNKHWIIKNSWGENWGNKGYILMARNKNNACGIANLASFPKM
# RAW264.7 = test: Inhibition of RANKL-induced bone resorption of multinucleated osteoclasts from mouse RAW264.7 cells by pit formation assay; assay type: functional, cell-based
# Macrophage = test: Inhibition of RANKL-induced bone resorption of multinucleated osteoclasts from BALB/c mouse bone marrow-derived macrophages by pit formation assay; assay type: functional, cell-based
# Chain of Procathepsin L (P07711 whole entry): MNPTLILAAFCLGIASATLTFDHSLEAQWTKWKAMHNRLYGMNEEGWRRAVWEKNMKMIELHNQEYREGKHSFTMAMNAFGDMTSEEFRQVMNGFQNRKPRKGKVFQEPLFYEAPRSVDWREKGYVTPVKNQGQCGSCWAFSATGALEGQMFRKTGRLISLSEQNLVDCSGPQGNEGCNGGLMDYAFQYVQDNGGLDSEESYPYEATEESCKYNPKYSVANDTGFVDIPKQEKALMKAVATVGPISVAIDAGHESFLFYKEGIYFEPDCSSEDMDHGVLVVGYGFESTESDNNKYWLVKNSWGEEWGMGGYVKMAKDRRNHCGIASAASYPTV
SMILES,IC50 (Cathepsin B) [nM],IC50 (Procathepsin L) [nM],IC50 (Cathepsin K) [nM],Activity (RAW264.7),Activity (Macrophage)
CC(C)C(Nc1ccccc1)C(=O)N1CCCCN1C#N (stereo unspecified),53,625,25,,
CC(C)C(NC(=O)OC(C)(C)C)C(=O)N1CCCCN1C#N (stereo unspecified),38,130,55,,
CC(C)C(NC(=O)OCc1ccccc1)C(=O)N1CCCCN1C#N (stereo unspecified),11,145,1,Dose-dependent effect,Dose-dependent effect
CC(C)C(Nc1cccc(C(F)(F)F)c1)C(=O)N1CCCCN1C#N (stereo unspecified),23,48,23,,
CC(C)C(Nc1ccc(Cl)cc1)C(=O)N1CCCCN1C#N (stereo unspecified),110,610,24,,
Cc1cccc(NC(C(=O)N2CCCCN2C#N)C(C)C)c1 (stereo unspecified),32,355,6,,
CC(C)C(Nc1cccc(C#N)c1)C(=O)N1CCCCN1C#N (stereo unspecified),40,730,4,,
CC(C)C(Nc1cccc(Cl)c1)C(=O)N1CCCCN1C#N (stereo unspecified),32,240,11,,
